These results are taken from US12194027B2, “Small molecule inhibitors of GPCR GPR68 and related receptors for treating cancer, glioblastoma, and other indications” (UNIVERSITY OF MARYLAND, BALTIMORE, priority 2019, dated 2025).

Assay [1] concerns U138 glioblastoma cell line. The assay is described as follows: 2D cell viability (cell titer blue), U138. In kind it is cell-based. As to conditions: U138, 72 hours. As for the experimental part:
(§1) Temozolomide is the standard of care for glioblastoma but only works on 30% of patients. Temozolomide sensitive U87 (FIG. 17A) and Temozolomide insensitive U138 (FIG. 17B) glioblastoma cell lines were plated in 96-well plates and exposed to increasing doses of either Temozolomide or OGM2. The viability of cells was assayed using cell titer blue after 72 hours, and data was normalized to DMSO vehicle control. See results in FIG. 17.
In general terms: Alamar Blue is a resazurin reagent that responds to reducing activity.

In the next assay the test system is U87 cells. Description: clonogenicity of U87 cells (crystal violet). In kind it is cell-based. Conditions: 0.1-2 uM, 12 days. The method, then: U87 cells were plated at 400 cells per well in a 6-well plate and on the next day were treated with increasing concentrations of OGM2 for 12 days. The doses were 0 uM (DMSO control) 0.1 μM 0.5 uM, 1 uM, 1.5 uM and 2 uM, as labelled. The plate was fixed with formalin and stained with crystal violet.

Assay [2] has as its system U138 glioblastoma cell line. The assay is described as follows: 3D tumor spheroid growth, U138. Type of assay: cell-based. As to conditions: U138, 5 days of treatment. The method, then:
(§2) Tumor spheroid cultures are a more physiological model of tumor growth than typical 2D cell culture. Temozolomide sensitive U87 (FIG. 18A) and Temozolomide insensitive U138 (FIG. 18B) glioblastoma cell lines were plated in low attachment round bottom 96-well plates and allowed to form tumor spheroids for 3 days (T0). At T0, spheroids were imaged using Lionheart™ (HCS) High-Content Imaging Systems (Biotek™) and then were exposed to increasing doses of either Temozolomide or OGM2. After 5 days of treatment the spheroids were imaged again (T5). The size (area) of the spheroids after 5 days of treatment was quantified, and the average size of the spheroids at T0 is depicted in red.

The test system of a further assay is WM115 cells. Description: agarose drop assay (3D model of melanoma extravasation). Type of assay: cell-based, human. As to conditions: 5 μM, 5 days. As for the experimental part:
WM115 cells were trypsinized and resuspended at 100,000 cells per mL in low melt agarose. A 10 μl drop of the cell mixture was added to 12-well plate. After solidifying Normal culture media was added with either DMSO 0.5% or OGM 5 μM. The area around the agarose drop was visualized manually with light microscopy. The cells were incubated for 5 days and visualized. Cells outside of the agarose drop were visualized and quantitated.
FIG. 8A is a schematic of the agarose drop assay. WM115 cells were mixed into a low melt agarose solution and single 10 μL drops were seeded onto cell culture plates. After solidifying, media containing OGM (5 μM) or CTL (DMSO […]) was added and wells were observed 5 days later. Immediately after media addition no cells are on the plate outside of the agarose gel in CTL or OGM. Five days after seeding cells are observed outside of the gel (Black arrows) in CTL but not in OGM. […] Quantification on the number of cells that escaped from an average of 5 gel drop replicates. FIG. 8B through FIG. 8F show the cells after media addition. No cells are on the plate outside of the agarose gel in CTL or OGM. Five days after seeding, cells are observed outside of the gel (arrows) in CTL but not in OGM.

For the next assay, the system named is A2058 melanoma cell line. Description: scratch assay for migration, A2058. In kind it is cell-based, human. Conditions: OGM 5 μM, EIPA 10 μM, 20 hours. The method, then: (§3) Cells were grown to confluence and the cells were denuded with a P200 tip. A medium change was done to add fresh medium, remove loose cells and add compounds OGM (5 μM) and EIPA (10 μM). The area of the scratch was observed 20 hours later.
(§4) Since there are numerous parallels are found between neural crest cells and cancer during migration, we examined whether OGM could inhibit the migration of cells in human melanoma cell lines (Oppitz et al., 2007; Schriek et al., 2005; Sinnberg et al., 2018). […] A2058, MeWo and WM115 cells were grown to confluence and a stripe of cells were denuded with a p200 pipette tip “scratch” and rinsed with PBS. Cells were treated with OGM or EIPA, or DMSO and incubated in low serum media. Imaging was done at 30 minutes after “scratch” and then 20 hours afterwards. Areas were then measured and normalized to the initial area.
(§5) Previous studies with the MV3 melanoma cell line have shown that disruption of proton efflux with EIPA inhibition of NHE1 can also reduce melanoma motility (Ludwig et al., 2013; Schneider et al., 2009; Stock et al., 2007, 2005; Stüwe et al., 2007). […] Although the expression of GPR68 and other proton-sensing receptors have been characterized in various skin cancers (Merkel cell carcinoma, dermatofibrosarcoma protuberans, atypical fibroxanthoma, and pleomorphic dermal sarcoma), expression in melanoma cell lines has not investigated (Nassios et al., 2019).

Assay [3] concerns U87 glioblastoma cell line. The assay is described as follows: 3D tumor spheroid growth, U87. In kind it is cell-based. Conditions: U87, 5 days of treatment. The method, then: as §2
The target of a further assay is 336X-GFP (Homo sapiens (Human), UniProt Q15743). The assay is described as follows: SRE-luciferase assay, 336X-GFP truncation variant transfected HEK293T. Type of assay: cell-based. Conditions: 10 μM. The method, then:
(§6) 12-well plates of cells were transfected with 1 μg DNA using Lipofectamine 3000 with sre:luciferase and either GFP, GPR68-GFP or 336X-GFP. After 3 days, these cells were then lysed, and cell extracts were subjected to Steady-Glo luciferase assay (Promega™) according to the manufacturer's instructions. The results were normalized to cell titer, as determined using Cell Titer-Glo luminescence assay (Promega™).
A deletion between amino acid 336 and the beginning of GFP was generated from the MCSV:GPR68-GFP plasmid using the Q5 mutagenesis kit (NEB).
(§7) Loss of internalization can indicate loss of activity or loss of the ability to internalize through beta-arrestin. […] Compared to GFP controls, GPR68-GFP and 336X-GFP transfected cells had higher levels of activity. (n=3 biological replicates done in triplicate). Furthermore, the activity of the truncation variant was still inhibited by OGM. […]

A further assay relates to WM115 melanoma cell line. The assay is described as follows: scratch assay for migration, WM115. Type of assay: cell-based, human. As to conditions: OGM 5 μM, EIPA 10 μM, 20 hours. As for the experimental part: as §3, §4, §5
Assay [4] concerns U87 glioblastoma cell line. The assay is described as follows: 2D cell viability (cell titer blue), U87. Type of assay: cell-based. As to conditions: U87, 72 hours. As for the experimental part:
as §1

Assay [5] relates to zebrafish embryo. The assay is described as follows: foxD3 in situ hybridization of neural crest progenitors. Conditions: in vivo. As for the experimental part:
In situ hybridization was performed as previously described (Westerfield, 2000). Zebrafish foxD3 probes were synthesized as previously described (Stewart et al., 2006).
To identify if neural crest progenitors were perturbed by OGM, foxD3 staining was performed. This identified no difference. […] The views on the right show a magnification of the indicated area, with arrows showing positive staining along the dorsal ridge of the embryo.

Assay [6] has as its system zebrafish embryo. The assay is described as follows: zebrafish embryo phenotype (pigmentation, morphology). Type of assay: in vivo.
In a further assay the test system is MeWo melanoma cell line. Description: scratch assay for migration, MeWo. In kind it is cell-based, human. Conditions: OGM 5 μM, EIPA 10 μM, 20 hours. The method, then:
as §3, §4, §5

The next assay deals with 158 GPCRs. The assay is described as follows: Millipore GPCR profiling, agonist and antagonist activity. In kind it is cell-based. Conditions: 10 μM.
The target in another assay is GPR68-GFP (Homo sapiens (Human), UniProt Q15743). The assay is described as follows: SRE-luciferase assay, GPR68-GFP transfected HEK293T. Type of assay: cell-based. Conditions: 10 μM. The method, then:
as §6, §7

Sequence of GPR68-GFP (Q15743 whole entry): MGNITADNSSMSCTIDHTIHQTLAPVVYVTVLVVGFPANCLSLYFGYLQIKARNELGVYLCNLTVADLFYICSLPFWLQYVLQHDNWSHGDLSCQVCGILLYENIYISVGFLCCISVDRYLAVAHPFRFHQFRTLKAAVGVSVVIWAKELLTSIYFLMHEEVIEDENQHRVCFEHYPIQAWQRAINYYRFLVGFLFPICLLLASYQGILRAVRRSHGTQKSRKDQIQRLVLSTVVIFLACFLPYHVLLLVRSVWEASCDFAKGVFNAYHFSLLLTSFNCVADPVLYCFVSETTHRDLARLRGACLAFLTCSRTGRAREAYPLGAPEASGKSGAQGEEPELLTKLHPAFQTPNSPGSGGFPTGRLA
Sequence of 336X-GFP (Q15743 1-335): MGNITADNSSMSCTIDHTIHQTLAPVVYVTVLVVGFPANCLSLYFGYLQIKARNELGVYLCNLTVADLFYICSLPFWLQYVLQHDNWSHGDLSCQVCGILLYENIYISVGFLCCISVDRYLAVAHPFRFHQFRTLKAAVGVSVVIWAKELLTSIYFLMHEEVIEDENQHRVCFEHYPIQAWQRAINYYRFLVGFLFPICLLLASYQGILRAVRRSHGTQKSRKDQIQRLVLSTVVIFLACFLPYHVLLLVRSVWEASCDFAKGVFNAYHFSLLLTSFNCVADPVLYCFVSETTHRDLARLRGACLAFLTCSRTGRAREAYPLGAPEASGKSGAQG

In the case of `CCc1ccc2c(c1)C1(NN=C(c3cccc4ccccc34)S1)C(=O)N2` (stereo not drawn) [OGM, 5-ethyl-5′-naphthalen-1-ylspiro[1H-indole-3,2′-3H-1,3,4-thiadiazole]-2-one], the “viability versus Temozolomide” value in assay [1] and in assay [4] was “more effective than Temozolomide” in each case. In addition, the clonogenicity entry with U87 cells is on record as “Reduces Clonogenicity”. Further, the “spheroid size versus Temozolomide” value in assay [2] and in [3] was “more effective than Temozolomide” each time. For the same molecule, the “migration out of agarose drop” value in the assay on WM115 cells is listed as “migrated significantly less”. Also, the “migration in scratch assay” value in the assay with A2058 melanoma cell line, with WM115 melanoma cell line and with MeWo melanoma cell line was “inhibited migration” throughout. The SRE-luciferase activity result on 336X-GFP and at GPR68-GFP was “reduced the level of luciferase activity” each time. Besides, in the assay on zebrafish embryo [5], the “foxD3 staining of neural crest progenitors” value is recorded as “no difference”. The induced morphological phenotype entry in the assay on zebrafish embryo [6] (OGM 10 uM, 48 hours pf) is “induced ventral curvature, wavy notochord, shortened body axis, craniofacial defects, and loss of retinal iridophores”. In addition, the “time window of pigmentation defect” value in the assay on zebrafish embryo [6] (temporal phenotypic analysis, treatment windows 0-36 hours pf) was “dependent on treatment during the 12 hours pf-18 hours pf time window”. In addition, in the assay with 158 GPCRs, the “agonist and antagonist activity against 158 GPCRs” value was “Only GPR68, LPA1 and GPR14 (UT2R) showed significant activity”.
